Measured values taken from US9932637B2, “Genetic polymorphisms associated with cardiovascular disorders and drug response, methods of detection and uses thereof” (CELERA CORPORATION, priority 2003, dated 2018).

System: patients with prior myocardial infarction (CARE study)
Assay: CARE: association of SNPs with pravastatin treatment in cardiovascular events prevention (logistic regression, odds ratio pravastatin vs placebo by genotype; Table 8)
Assay type: in vivo, human
Conditions: for Definite Nonfatal MI, n/total (%) / Fatal CHD/Definite Nonfatal MI, n/total (%): CD6 hCV25922320, All Patients; for Fatal/Nonfatal MI (def & prob), n/total (%) / MI (Fatal/Nonfatal), n/total (%) / Nonfatal MI (def & prob), n/total (%): COL11A1 hCV8400671, All Patients
Text: In order to identify genetic markers associated with acute coronary events (e.g. MI, stroke, unstable angina, congestive heart failure, etc.) or response to statin treatment for the prevention of coronary events, samples from the Cholesterol and Recurrent Events (CARE) study (a randomized multicentral double-blinded trial on secondary prevention of acute coronary events with pravastatin) (Sacks et al., 1991, Am. J. Cardiol. 68: 1436-1446) were genotyped. A well-documented myocardial infarction (MI) was one of the enrollment criteria for entry into the CARE study. Patients were enrolled in the CARE trial from 80 participating study centers. […] Patients were randomized to receive either 40 mg of pravastatin once daily or a matching placebo. The primary endpoint of the trial was death from coronary heart disease and the median duration of follow-up was 5.0 years (range, 4.0 to 6.2 years). […] Secondary endpoints of other related cardiovascular or metabolic disease events, and changes in clinical variables were also recorded in pravastatin-treated and placebo groups. All individuals included in the study had signed a written informed consent form and the study protocol was approved by the respective Institutional Review Boards (IRBs).
For genotyping SNPs in CARE patient samples, DNA was extracted from blood samples using conventional DNA extraction methods such as the QIA-amp kit from Qiagen. Genotypes were obtained on an ABI PRISM® 7900HT Sequence Detection PCR system (Applied Biosystems, Foster City, Calif.) by kinetic allele-specific PCR, similar to the method described by Germer et al. (Germer S., Holland M. J., Higuchi R. 2000, Genome Res. 10: 258-266).
Statistical analysis for association of SNPs with pravastatin treatment in cardiovascular events prevention (Table 8) was carried out using an overall logistic regression model that included an intercept, a parameter for the effect of a genotype containing two rare alleles versus a genotype containing no rare alleles, a parameter for the effect of a genotype containing one rare allele versus a genotype containing no rare alleles, a parameter for the effect of use of pravastatin versus the use of placebo, and parameters for the interaction effects between SNP genotypes and pravastatin use. The test of the overall model is a chi-square test with two degrees of freedom for analyses containing all three genotypes, and one degree of freedom for analyses containing two genotypes.
Effect sizes were estimated through odds ratios (pravastatin group versus placebo) for carriers of each genotype (groups of 0, 1, and 2 minor allele carriers). The effect was considered to be significant if p-value for testing whether any of the interactions between SNP genotypes and pravastatin use were <0.05. […] Odds ratios less than one indicate that the specific SNP allele has a protective effect and odds ratios greater than one indicate that the specific SNP allele has an adverse effect.

[1] = CCL11 hCV7449808, All Patients, 2 Rare Alleles, Prava, n/total 9/34
[2] = CCL11 hCV7449808, All Patients, Fatal/Non-fatal Atherosclerotic CV Disease
[3] = CCL11 hCV7449808, All Patients, Hosp. for Cardiovascular Disease
[4] = CCL11 hCV7449808, All Patients, Total Cardiovascular Disease Events
[5] = CCL11 hCV7449808, All Patients, Total Coronary Heart Disease Events
[6] = CD6 hCV2553030, All Patients, 0 Rare Alleles, Prava arm
[7] = CD6 hCV2553030, All Patients, 1 Rare Allele, Prava arm
[8] = CD6 hCV2553030, All Patients, 2 Rare Alleles, Prava arm
[9] = CHUK hCV1345898, All Patients, Hosp. for Unstable Angina
[10] = CHUK hCV1345898, All Patients, Non-fatal MI (def & prob)

SMILES: CC[C@H](C)C(=O)O[C@H]1C[C@H](O)C=C2C=C[C@H](C)[C@H](CC[C@@H](O)C[C@@H](O)CC(=O)O)[C@H]21 [pravastatin]
- Total Coronary Heart Disease Events, n/total (%) (CCL11 hCV7449808, All Patients, 2 Rare Alleles, Prava, n/total 4/34): (11.8%)
- Fatal/Non-fatal Atherosclerotic CV Disease, n/total (%) (CCL11 hCV7449808, All Patients, 2 Rare Alleles, Prava, n/total 7/34): (20.6%)
- Hosp. for Cardiovascular Disease, n/total (%) [1]: (26.5%)
- Total Cardiovascular Disease Events, n/total (%) [1]: (26.5%)
- Prava vs. Placebo Odds Ratio, 0 Rare Alleles [2]: 0.80
- Prava vs. Placebo Odds Ratio, 1 Rare Alleles [2]: 0.82
- Prava vs. Placebo Odds Ratio, 2 Rare Alleles [2]: 0.21
- Prava vs. Placebo Odds Ratio, 0 Rare Alleles [3]: 0.76
- Prava vs. Placebo Odds Ratio, 1 Rare Alleles [3]: 0.91
- Prava vs. Placebo Odds Ratio, 2 Rare Alleles [3]: 0.16
- Prava vs. Placebo Odds Ratio, 0 Rare Alleles [4]: 0.77
- Prava vs. Placebo Odds Ratio, 1 Rare Alleles [4]: 0.88
- Prava vs. Placebo Odds Ratio, 2 Rare Alleles [4]: 0.14
- Prava vs. Placebo Odds Ratio, 0 Rare Alleles [5]: 0.80
- Prava vs. Placebo Odds Ratio, 1 Rare Alleles [5]: 0.84
- Prava vs. Placebo Odds Ratio, 2 Rare Alleles [5]: 0.16
- Hosp. for Cardiovascular Disease, n/total (%) [6]: (41.5%)
- Total Cardiovascular Disease Events, n/total (%) [6]: (43.2%)
- Hosp. for Cardiovascular Disease, n/total (%) [7]: (39.9%)
- Total Cardiovascular Disease Events, n/total (%) [7]: (40.3%)
- Hosp. for Cardiovascular Disease, n/total (%) [8]: (31.3%)
- Total Cardiovascular Disease Events, n/total (%) [8]: (33.0%)
- Odds ratio pravastatin vs placebo (CD6 hCV2553030, All Patients, Hosp. for Cardiovascular Disease, 0 rare alleles): 0.81
- Odds ratio pravastatin vs placebo (CD6 hCV2553030, All Patients, Hosp. for Cardiovascular Disease, 1 rare allele): 0.78
- Odds ratio pravastatin vs placebo (CD6 hCV2553030, All Patients, Hosp. for Cardiovascular Disease, 2 rare alleles): 0.37
- Odds ratio pravastatin vs placebo (CD6 hCV2553030, All Patients, Total Cardiovascular Disease Events, 0 rare alleles): 0.83
- Odds ratio pravastatin vs placebo (CD6 hCV2553030, All Patients, Total Cardiovascular Disease Events, 1 rare allele): 0.74
- Odds ratio pravastatin vs placebo (CD6 hCV2553030, All Patients, Total Cardiovascular Disease Events, 2 rare alleles): 0.38
- Definite Nonfatal MI, n/total (%) (0 Rare Alleles, Prava arm): (5.7%)
- Fatal CHD/Definite Nonfatal MI, n/total (%) (0 Rare Alleles, Prava arm): (7.7%)
- Definite Nonfatal MI, n/total (%) (1 Rare Allele, Prava arm): (9.2%)
- Fatal CHD/Definite Nonfatal MI, n/total (%) (1 Rare Allele, Prava arm): (12.3%)
- Definite Nonfatal MI, n/total (%) (2 Rare Alleles, Prava arm): (4.8%)
- Fatal CHD/Definite Nonfatal MI, n/total (%) (2 Rare Alleles, Prava arm): (9.7%)
- Odds ratio pravastatin vs placebo (CD6 hCV25922320, All Patients, Definite Nonfatal MI, 0 rare alleles): 0.52
- Odds ratio pravastatin vs placebo (CD6 hCV25922320, All Patients, Definite Nonfatal MI, 1 rare allele): 1.12
- Odds ratio pravastatin vs placebo (CD6 hCV25922320, All Patients, Definite Nonfatal MI, 2 rare alleles): 0.63
- Odds ratio pravastatin vs placebo (CD6 hCV25922320, All Patients, Fatal CHD/Definite Nonfatal MI, 2 rare alleles): 0.92
- Non-fatal MI (def & prob), n/total (%) (CHUK hCV1345898, All Patients, 0 Rare Alleles, Prava, n/total 47/413): (11.4%)
- Hosp. for Unstable Angina, n/total (%) (CHUK hCV1345898, All Patients, 0 Rare Alleles, Prava, n/total 68/413): (16.5%)
- Non-fatal MI (def & prob), n/total (%) (CHUK hCV1345898, All Patients, 1 Rare Allele, Prava, n/total 69/734): (9.4%)
- Hosp. for Unstable Angina, n/total (%) (CHUK hCV1345898, All Patients, 1 Rare Allele, Prava, n/total 110/734): (15.0%)
- Non-fatal MI (def & prob), n/total (%) (CHUK hCV1345898, All Patients, 2 Rare Alleles, Prava, n/total 17/354): (4.8%)
- Hosp. for Unstable Angina, n/total (%) (CHUK hCV1345898, All Patients, 2 Rare Alleles, Prava, n/total 51/354): (14.4%)
- Prava vs. Placebo Odds Ratio, 0 Rare Alleles [9]: 1.38
- Prava vs. Placebo Odds Ratio, 1 Rare Alleles [9]: 0.76
- Prava vs. Placebo Odds Ratio, 2 Rare Alleles [9]: 0.59
- Prava vs. Placebo Odds Ratio, 0 Rare Alleles [10]: 0.86
- Prava vs. Placebo Odds Ratio, 1 Rare Alleles [10]: 0.77
- Prava vs. Placebo Odds Ratio, 2 Rare Alleles [10]: 0.34
- Fatal/Nonfatal MI (def & prob), n/total (%) (0 Rare Alleles, Prava arm): (10.6%)
- MI (Fatal/Nonfatal), n/total (%) (0 Rare Alleles, Prava arm): (10.7%)
- Nonfatal MI (def & prob), n/total (%) (0 Rare Alleles, Prava arm): (9.6%)
- Fatal/Nonfatal MI (def & prob), n/total (%) (1 Rare Allele, Prava arm): (8.2%)
- MI (Fatal/Nonfatal), n/total (%) (1 Rare Allele, Prava arm): (8.6%)
- Nonfatal MI (def & prob), n/total (%) (1 Rare Allele, Prava arm): (7.7%)
- Fatal/Nonfatal MI (def & prob), n/total (%) (2 Rare Alleles, Prava arm): (4.1%)
- MI (Fatal/Nonfatal), n/total (%) (2 Rare Alleles, Prava arm): (4.1%)
